Source: PMC9835529, “Investigation of Novel Quinoline–Thiazole Derivatives as Antimicrobial Agents: In Vitro and In Silico Approaches” (ACS Omega, 2022)
Converted amounts (≈) assume the structure as drawn.

How the values were obtained:
[1] = target: T1, human aromatase enzyme (CYP19A) (Homo sapiens, UniProt P11511); assay: Aromatase (CYP19A) Inhibitor Screening Kit (Fluorometric); assay type: biochemical
T1 construct: purchased Bio Vision
T1 sequence (P11511 1-503): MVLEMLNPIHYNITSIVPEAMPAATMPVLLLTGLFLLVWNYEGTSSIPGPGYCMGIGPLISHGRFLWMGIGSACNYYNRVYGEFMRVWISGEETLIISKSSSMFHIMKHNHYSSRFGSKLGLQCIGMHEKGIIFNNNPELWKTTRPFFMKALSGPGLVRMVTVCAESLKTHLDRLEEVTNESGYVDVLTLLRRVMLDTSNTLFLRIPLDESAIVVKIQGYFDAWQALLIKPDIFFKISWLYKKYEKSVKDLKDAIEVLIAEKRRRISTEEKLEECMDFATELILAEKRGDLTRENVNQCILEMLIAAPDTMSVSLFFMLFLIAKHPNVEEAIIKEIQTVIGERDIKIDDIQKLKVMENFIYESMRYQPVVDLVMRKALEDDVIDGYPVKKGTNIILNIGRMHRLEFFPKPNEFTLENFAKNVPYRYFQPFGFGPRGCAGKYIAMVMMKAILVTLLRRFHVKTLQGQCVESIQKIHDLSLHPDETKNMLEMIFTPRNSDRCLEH

[2] = tested on: Klebsiella pneumoniae NCTC 9633; assay: Antibacterial broth microdilution (CLSI M07-A9), MIC90; assay type: cell-based; conditions: NCTC9633, K. pneumoniae NCTC 9633
Text: (§1) The broth microdilution procedure specified in the M07-A9 document of the Clinical and Laboratory Standards Institute (CLSI) was used for antibacterial study,[55] and the EDef 7.1 document published by EUCAST was used for the antifungal study.[56] For both activity studies, the detailed procedures were explained in previous studies.[57],[58]

[3] = tested on: Escherichia coli ATCC 35218; assay: as above; assay type: cell-based; conditions: E. coli ATCC 35218; for MIC90: Escherichia coli, ATCC35218
Text: as §1

[4] = tested on: Salmonella typhimurium ATCC 13311; assay: as above; assay type: cell-based; conditions: Salmonella enterica; S. typhimurium ATCC 13311
Text: as §1

[5] = tested on: methicillin-resistant S. aureus (MRSA) (clinical isolate); assay: as above; assay type: cell-based; conditions: for MIC90: Staphylococcus aureus
Text: as §1

E. coli ATCC 25922 = assay: as above; assay type: cell-based; conditions: for MIC90: Escherichia coli, ATCC25922
Text: as §1

[6] = tested on: Staphylococcus aureus ATCC 6538; assay: as above; assay type: cell-based; conditions: Staphylococcus aureus, ATCC6538; S. aureus ATCC 6538; read-out: MIC90
Text: as §1

NIH/3T3 cells = assay: Cytotoxicity on NIH/3T3 healthy cell line; assay type: cell-based; conditions: Mus musculus, NIH3T3, 24 h incubation
Procedure: NIH/3T3 cells were incubated in Dulbecco’s modified Eagle’s medium (DMEM) (Sigma-Aldrich, St. Louis, MO), added with fetal calf serum, penicillin (100 IU/mL), streptomycin ([…]), and 7.5% NaHCO3 at 37 °C in a humidified atmosphere of 95% air and 5% CO2. NIH/3T3 cells were seeded into the 96-well plates at a density of 1 × 10^4 cells. After 24 h of incubating period, the culture media were removed, and test compounds were added. After 24 h of incubation period, colorimetric measurements were performed by a microplate reader (Biotek) at 540 nm. Inhibition % at all concentrations was determined using the formula below, and the IC50 values were calculated from a dose–response curve obtained by plotting the percentage inhibition versus the log concentration with the use of Microsoft Excel 2013.

[7] = tested on: Lanosterol 14α-demethylase (LMD, CYP51A1); assay: LDM (CYP51A1) inhibition by LC-MS-MS quantification of ergosterol level; assay type: cell-based
Procedure: The activity of the target compounds was tested against Candida strains via the determination of ergosterol production.
Ergosterol level was determined using the extract of total sterols from C. albicans (and its other species) following the method described by Breivik and Owades.[63] Quantification of the ergosterol level in this extract was carried out by the recently described method.[58],[64]−[66] According to these described studies, in the current work, compounds 4b, 4e, 4f, and 4h–m were undertaken to investigate their action mechanism. Thus, the LC-MS-MS-based method that quantifies the ergosterol level was applied. […]. Ergosterol quantity in negative control samples was regarded as 100%. All concentrations were analyzed in quadruplicate, and the results were expressed as mean ± standard deviation (SD).

C. glabrata ATCC 90030 = assay: Anticandidal broth microdilution (EUCAST EDef 7.1), MIC90; assay type: cell-based, Candida glabrata; conditions: Nakaseomyces glabratus, ATCC90030, C. glabrata ATCC 90030
Text: (§2) E. coli (ATCC 35218), E. coli (ATCC 25922), S. aureus (ATCC 6538), methicillin-resistant S. aureus (MRSA) (clinical isolate), S. typhimurium (ATCC 13311), and K. pneumoniae (NCTC 9633) cells for antibacterial effect, and C. albicans (ATCC 24433), C. glabrata (ATCC 90030), C. krusei (ATCC 6258), and C. parapsilosis (ATCC 22019) for the antifungal effect of the final compounds were used to determine the MIC90 values. The broth microdilution procedure specified in the M07-A9 document of the Clinical and Laboratory Standards Institute (CLSI) was used for antibacterial study,[55] and the EDef 7.1 document published by EUCAST was used for the antifungal study.[56] For both activity studies, the detailed procedures were explained in previous studies.[57],[58]

Candida krusei ATCC 6258 = assay: as above; assay type: cell-based; conditions: Pichia kudriavzevii, ATCC6258, C. krusei ATCC 6258; read-out: MIC90
Text: as §2

[8] = tested on: Candida albicans ATCC 24433; assay: as above; assay type: cell-based; conditions: Candida albicans, ATCC24433, C. albicans ATCC 24433; read-out: MIC90
Text: as §2

[9] = tested on: Candida parapsilosis ATCC 22019; assay: as above; assay type: cell-based; conditions: Lodderomyces parapsilosis, ATCC22019, C. parapsilosis ATCC 22019; read-out: MIC90
Text: as §2

E. coli DNA gyrase = target: T2, E. coli DNA gyrase (Escherichia coli, UniProt P0AES4+P0AES6); assay: DNA-gyrase supercoiling inhibition by electrophoresis (TopoGen kit); assay type: biochemical; conditions: relaxed pHOT1 DNA
T2 construct: purchased TopoGen SKU TG2000G-3
Procedure: DNA gyrase obtained from E. coli was used to detect the inhibition of the superhelix activity of DNA gyrase. The method was performed according to the kit protocol described by the supplier (SKU TG2000G-3, TopoGen). The detailed procedures were explained in the previous study.[62]

T2 sequence (P0AES4 whole entry, one chain of several): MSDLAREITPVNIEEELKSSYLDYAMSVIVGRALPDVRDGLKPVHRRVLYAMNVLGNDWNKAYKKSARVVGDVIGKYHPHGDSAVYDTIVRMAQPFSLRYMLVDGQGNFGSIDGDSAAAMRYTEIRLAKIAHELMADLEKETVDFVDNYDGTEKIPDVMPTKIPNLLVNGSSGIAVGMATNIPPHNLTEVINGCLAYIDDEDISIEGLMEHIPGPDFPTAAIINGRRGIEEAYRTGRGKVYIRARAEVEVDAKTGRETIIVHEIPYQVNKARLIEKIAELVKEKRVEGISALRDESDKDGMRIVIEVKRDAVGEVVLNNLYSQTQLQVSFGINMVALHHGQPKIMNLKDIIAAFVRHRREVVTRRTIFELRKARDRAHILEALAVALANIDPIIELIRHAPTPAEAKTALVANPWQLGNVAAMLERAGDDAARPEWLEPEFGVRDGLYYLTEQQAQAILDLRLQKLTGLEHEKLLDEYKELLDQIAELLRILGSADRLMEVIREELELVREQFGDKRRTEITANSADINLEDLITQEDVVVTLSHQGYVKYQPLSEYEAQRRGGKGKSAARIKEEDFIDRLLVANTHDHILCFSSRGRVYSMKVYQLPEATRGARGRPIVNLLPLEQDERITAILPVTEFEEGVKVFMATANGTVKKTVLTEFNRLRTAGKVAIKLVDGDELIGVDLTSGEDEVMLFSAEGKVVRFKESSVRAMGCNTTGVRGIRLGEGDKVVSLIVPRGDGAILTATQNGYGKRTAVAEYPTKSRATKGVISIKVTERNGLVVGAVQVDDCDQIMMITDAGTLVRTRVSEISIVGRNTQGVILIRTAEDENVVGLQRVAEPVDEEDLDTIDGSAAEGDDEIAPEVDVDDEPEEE

Row | Compound | IC50 [1] | MIC90 [2] | MIC90 [3] | MIC90 [4] | MIC90 [5] | MIC90 (E. coli ATCC 25922) | MIC90 [6] | IC50 (NIH/3T3 cells) | melting point | effect on ergosterol production / LMD enzyme inhibition (in words) ([7]; C. parapsilosis) | CYP51A1 Inhibition% ([7]; C. parapsilosis, 0.06 μg/mL) | CYP51A1 Inhibition% ([7]; C. parapsilosis, 0.24 μg/mL) | CYP51A1 Inhibition% ([7]; C. parapsilosis, 0.98 μg/mL) | MIC90 (C. glabrata ATCC 90030) | MIC90 (Candida krusei ATCC 6258) | MIC90 [8] | MIC90 [9] | times more effective than chloramphenicol (MIC90) [3] | times more effective than the standard drug chloramphenicol (MIC90) [5] | times more effective than chloramphenicol (MIC90) (E. coli ATCC 25922) | also measured
1 | COc1cccc(-c2csc(N/N=C/c3cc4cc(OC)ccc4nc3Cl)n2)c1 [4k] | 0.038 ± 0.001 µM | > 1000 µg/mL | > 1000 µg/mL | > 1000 µg/mL | > 1000 µg/mL | > 1000 µg/mL | > 1000 µg/mL | 12 ± 0.44 µM | 217 to 220 °C | did not decrease the ergosterol production compared to the standard drugs | 11.449 ± 0.518% | 15.662 ± 0.616% | 17.437 ± 0.861% | 1.95 µg/mL (≈ 4.59 µM) | 1.95 µg/mL (≈ 4.59 µM) | 1.95 µg/mL (≈ 4.59 µM) | 1.95 µg/mL (≈ 4.59 µM) |  |  |  | 
2 | COc1ccc(-c2csc(N/N=C/c3cc4cc(OC)ccc4nc3Cl)n2)cc1 [4g] |  | > 1000 µg/mL | 7.81 µg/mL (≈ 18.4 µM) | > 1000 µg/mL | 3.91 µg/mL (≈ 9.2 µM) | 3.91 µg/mL (≈ 9.2 µM) | 7.81 µg/mL (≈ 18.4 µM) | 10.4 ± 0.22 µM | 176 to 180 °C |  |  |  |  | 15.6 µg/mL (≈ 36.8 µM) | 31.2 µg/mL (≈ 73.5 µM) | > 1000 µg/mL | 3.91 µg/mL (≈ 9.2 µM) | four times | 8 | four times | DNA-gyrase inhibition (electrophoresis image) (E. coli DNA gyrase): no peak belonging to the supercoiled DNA
3 | COc1ccc2nc(Cl)c(C=NNc3nc(-c4cccc5ccccc45)cs3)cc2c1 [4m] |  | > 1000 µg/mL | 7.81 µg/mL (≈ 17.6 µM) | > 1000 µg/mL | 7.81 µg/mL (≈ 17.6 µM) | 7.81 µg/mL (≈ 17.6 µM) | 7.81 µg/mL (≈ 17.6 µM) | 34.5 ± 0.88 µM | 174 to 179 °C |  |  |  |  | 1.95 µg/mL (≈ 4.38 µM) | ≤ 0.06 µg/mL | 1.95 µg/mL (≈ 4.38 µM) | 0.24 µg/mL (≈ 0.539 µM) | four times | 4 | twice | effect on ergosterol production / LMD enzyme inhibition (in words) ([7]; C. krusei): showed their anticandidal activity via LMD enzyme inhibition; CYP51A1 Inhibition% ([7]; C. krusei, 0.06 μg/mL): 48.431 ± 2.036%; CYP51A1 Inhibition% ([7]; C. krusei, 0.24 μg/mL): 61.289 ± 1.461%; CYP51A1 Inhibition% ([7]; C. krusei, 0.98 μg/mL): 70.574 ± 2.648%; DNA-gyrase inhibition (electrophoresis image) (E. coli DNA gyrase): no peak belonging to the supercoiled DNA
4 | COc1ccc2nc(Cl)c(C=NNc3nc(-c4ccncc4)cs3)cc2c1 [4l] | 0.042 ± 0.002 µM | > 1000 µg/mL | > 1000 µg/mL | > 1000 µg/mL | > 1000 µg/mL | > 1000 µg/mL | > 1000 µg/mL | > 1000 µM | 250 to 257 °C | showed their anticandidal activity via LMD enzyme inhibition | 40.328 ± 1.326% | 56.137 ± 0.928% | 62.949 ± 2.626% | 1.95 µg/mL (≈ 4.93 µM) | > 1000 µg/mL | 1.95 µg/mL (≈ 4.93 µM) | 1.95 µg/mL (≈ 4.93 µM) |  |  |  | 
5 | COc1ccc2nc(Cl)c(/C=N/Nc3nc(-c4cccc([N+](=O)[O-])c4)cs3)cc2c1 [4i] | 0.033 ± 0.001 µM | > 1000 µg/mL | > 1000 µg/mL | > 1000 µg/mL | > 1000 µg/mL | > 1000 µg/mL | > 1000 µg/mL | 8.54 ± 0.26 µM | 212 to 214 °C |  |  |  |  | 1.95 µg/mL (≈ 4.43 µM) | 1.95 µg/mL (≈ 4.43 µM) | 1.95 µg/mL (≈ 4.43 µM) | 1.95 µg/mL (≈ 4.43 µM) |  |  |  | effect on ergosterol production / LMD enzyme inhibition (in words) ([7]; C. krusei): did not decrease the ergosterol production compared to the standard drugs; CYP51A1 Inhibition% ([7]; C. krusei, 0.06 μg/mL): 11.662 ± 0.479%; CYP51A1 Inhibition% ([7]; C. krusei, 0.24 μg/mL): 14.178 ± 0.655%; CYP51A1 Inhibition% ([7]; C. krusei, 0.98 μg/mL): 18.361 ± 0.767%
6 | COc1ccc2nc(Cl)c(C=NNc3nc(-c4cccc(F)c4)cs3)cc2c1 [4j] | 0.047 ± 0.001 µM | > 1000 µg/mL | > 1000 µg/mL | > 1000 µg/mL | > 1000 µg/mL | > 1000 µg/mL | > 1000 µg/mL | 10 ± 0.39 µM | 221 to 223 °C | showed their anticandidal activity via LMD enzyme inhibition | 41.867 ± 0.968% | 55.281 ± 1.174% | 63.508 ± 1.948% | > 1000 µg/mL | 62.5 µg/mL (≈ 151 µM) | > 1000 µg/mL | < 0.06 µg/mL |  |  |  | 
